{
  "source": "patent US8022061B2",
  "about": "“N-aryl pyrazole compounds, compositions, and methods for their use” (Amgen Inc., priority 2006, dated 2011)",
  "format_in_all_cases": "in vivo",
  "key": {"[1]": {"tested_on": "glucose-challenged animal models of diabetes", "experiment": "Glucose-challenged animal models of diabetes, circulating insulin (FIG. 1)", "conditions": "glucose challenge, treated animals relative to control animals", "experimental": "The following example describes how compounds can be evaluated in vivo in glucose-challenged animal models.\nArt-recognized animal models of diabetes, such as type 2 diabetes, include diet-induced obese C57BL/6 (“B6”) mice and ob/ob mice. See, e.g., Breyer et al., J. Am. Soc. Nephrol. 16:27-45 (2005) and references cited therein.\nRats (aged 5-20) weeks or mice (aged 6-20 weeks) are fasted overnight beginning at 4 pm. Between 9 and 10 am, glucose levels are determined with a glucometer using whole blood samples removed from the tail. The animals are placed into control and treatment groups having similar averages of glucose levels and body weights or similar averages of body weights (B6 mice). Animals are pre-dosed with vehicle (control group) or test article (5-10 mL/kg, p.o., s.c. or i.p.) and then challenged with glucose (1 g/kg, p.o. or i.p.). Blood samples are then collected from the tail and assay for glucose and insulin levels."}, "ob/ob mice": {"tested_on": "ob/ob mice", "experiment": "Increase of circulating insulin concentrations in treated ob/ob mice", "conditions": "male ob/ob mice, dose 10 mg/kg p.o., 10 minutes after dosing, relative to control group", "experimental": "The results presented below exemplify that administration of the compounds as provided herein to an art-recognized animal model of human diabetes can lead to increased circulating insulin concentrations in the animal model.\nMale ob/ob mice were weighed and bled from tail vein, and blood glucose levels were determined with a glucometer. Animals were placed into control and treatment groups having similar averages of glucose levels and body weights. In the morning of the following day, animals were dosed with vehicle (control group) or test article (5 ml/kg, p.o.). Blood samples were collected just before and 10 minutes after dosing, and the samples were assayed for insulin and glucose concentrations.\nTable 1 provides exemplary data showing the increase of circulating insulin concentrations (expressed as ng/ml) in treated mice relative to control group at 10 minutes after dosing the treated mice. Concentrations of the exemplary compound tested in the mice are provided in the righthand column."}, "C57B6 mice": {"tested_on": "C57B6 mice", "experiment": "Glucose lowering effect after oral glucose challenge in C57B6 mice", "conditions": "male C57B6 mice, p.o. 30 minutes before oral glucose 3 g/kg; blood glucose before, 20 and 50 minutes after challenge; relative to control group", "experimental": "The following example describes the glucose lowering effect of compounds observed in vivo.\nMale C57B6 mice were placed into control and treatment groups having similar averages of body weights. Then, animals were dosed with vehicle (control group) or test article (5 ml/kg, p.o.). Thirty minutes after dosing, glucose (3 g/kg) was orally administered in each animal. Blood samples were collected just before, 20 minutes and 50 minutes after glucose challenge and glucose concentrations in the samples was assessed. The values in Table 2 represent the observed % AUC reduction of blood glucose in the treated animals relative to the control group."}},
  "data": [
    {"smiles": "CCCc1c(C(=O)NC(C)c2ccncc2)cnn1-c1ncc(C)c(-c2cccs2)n1", "note": "(centres unmarked) [1-[5-Methyl-4-(2-thienyl)pyrimidin-2-yl]-5-propyl-N-(1-pyridin-4-ylethyl)-1H-pyrazole-4-carboxamide]", "values": [
      {"measurement": "circulating insulin levels", "setting": "[1]", "value": "increases in circulating insulin levels"},
      {"measurement": "Increase in Insulin", "setting": "ob/ob mice", "value": 3.9, "unit": "ng/mL"}
    ]},
    {"smiles": "CCCCc1c(C(=O)NCc2c(C)ncn2CC(=O)O)cnn1-c1ncc(C)c(-c2cccs2)n1", "note": "[(5-{[({5-Butyl-1-[5-methyl-4-(2-thienyl)pyrimidin-2-yl]-1H-pyrazol-4-yl}carbonyl)amino]methyl}-4-methyl-1H-imidazol-1-yl)acetic acid]", "values": [
      {"measurement": "% AUC reduction in glucose levels", "setting": "C57B6 mice", "value": 19, "unit": "%"},
      {"measurement": "Increase in Insulin", "setting": "ob/ob mice", "value": 3.9, "unit": "ng/mL"}
    ]},
    {"smiles": "CCOCc1c(C(=O)NCc2cncn2C)cnn1-c1ncc(C)c(NC2CCCCC2)n1", "note": "[1-[4-(Cyclohexylamino)-5-methylpyrimidin-2-yl]-5-(ethoxymethyl)-N-[(1-methyl-1H-imidazol-5-yl)methyl]-1H-pyrazole-4-carboxamide]", "values": [
      {"measurement": "% AUC reduction in glucose levels", "setting": "C57B6 mice", "value": 42, "unit": "%"}
    ]}
  ]
}
